Experimental data as given in article PMC7523331, “Curcumin derivative C212 inhibits Hsp90 and eliminates both growing and quiescent leukemia cells in deep dormancy” (Cell Communication and Signaling : CCS, 2020).

Target: T1, Hsp90
T1 construct: gene HSP82; C-terminus of Hsp90 (C-Hsp90, 629–732, 15 kDa), His-tagged
Test: intrinsic fluorescence quenching titration with purified Hsp90 domains
Type: binding
Source text: intrinsic fluorescence quenching titration with purified Hsp90 domains on Hsp90 | Dissociation constant (Kd) values of C212 with different Hsp90 domains

O=C(/C=C/c1cccnc1)C(Cc1ccccc1Cl)C(=O)/C=C/c1cccnc1 [C212, (1E,6E)-4-(2-Chlorinebenzyl)-1,7-bis(3-pyridine)-1,6-heptadiene-3,5-dione]
Kd: 15.3 ± 1.2 µM
